From ChEMBL document CHEMBL1201862, “PubChem BioAssay data set” (2004)
Activity calls are given as the source filed them.

What was measured:
Paired box protein Pax-8 = Paired box protein Pax-8 (Homo sapiens, UniProt Q06710); test: PAX8 transcriptional activity inhibition in RMG-I – RMG-I cells, luciferase, cherry-pick, dose response (AID 687027); assay type: functional, cell-based;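 further: luciferase reporter driven by Pax8 target thyroperoxidase promoter measured by SteadyGlo luminescence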
[1] = molecular target: T1, RNA-binding protein pos-1 (Caenorhabditis elegans, UniProt G5EF15); test: disruptors of C. elegans POS-1 RNA interaction – biochemical, fluorescence polarization, dose response (AID 1964);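 further: purified POS-1 fused to maltose binding protein made in E. coli; potency of compounds blocking POS-1 binding to fluorescent RNA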
T1 sequence (G5EF15 whole entry): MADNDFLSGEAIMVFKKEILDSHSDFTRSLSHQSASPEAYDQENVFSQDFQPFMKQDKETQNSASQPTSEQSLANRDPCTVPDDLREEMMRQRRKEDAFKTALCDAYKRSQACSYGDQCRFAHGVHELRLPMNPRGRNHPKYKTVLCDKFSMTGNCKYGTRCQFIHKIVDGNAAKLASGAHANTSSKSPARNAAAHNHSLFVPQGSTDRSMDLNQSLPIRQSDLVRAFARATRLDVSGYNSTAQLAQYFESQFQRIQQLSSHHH

[2] = molecular target: T2, Zinc finger protein mex-5 (Caenorhabditis elegans, UniProt Q9XUB2); test: potency of MEX-5 RNA-binding blockers – biochemical, C. elegans, fluorescence polarization, dose response (AID 1960)
T2 sequence (Q9XUB2 whole entry): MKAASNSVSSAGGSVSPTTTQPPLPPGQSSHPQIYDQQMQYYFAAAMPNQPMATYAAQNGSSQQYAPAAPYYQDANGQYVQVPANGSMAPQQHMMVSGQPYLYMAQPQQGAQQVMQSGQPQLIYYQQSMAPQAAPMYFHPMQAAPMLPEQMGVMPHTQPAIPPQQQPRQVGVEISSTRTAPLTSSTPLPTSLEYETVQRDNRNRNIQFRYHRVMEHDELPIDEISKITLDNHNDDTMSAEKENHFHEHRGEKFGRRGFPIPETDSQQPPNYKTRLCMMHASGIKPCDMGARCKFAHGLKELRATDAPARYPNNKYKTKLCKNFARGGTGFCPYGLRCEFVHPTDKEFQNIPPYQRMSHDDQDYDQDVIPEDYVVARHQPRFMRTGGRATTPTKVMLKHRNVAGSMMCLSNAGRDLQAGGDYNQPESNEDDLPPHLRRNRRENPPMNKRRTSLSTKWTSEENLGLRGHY

Cytochrome P450 1A2 = molecular target: T3, Cytochrome P450 1A2 (Homo sapiens, UniProt P05177);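 further: PubChem cytochrome P450 panel assay, CYP1A2 panel member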
T3 sequence (P05177 whole entry): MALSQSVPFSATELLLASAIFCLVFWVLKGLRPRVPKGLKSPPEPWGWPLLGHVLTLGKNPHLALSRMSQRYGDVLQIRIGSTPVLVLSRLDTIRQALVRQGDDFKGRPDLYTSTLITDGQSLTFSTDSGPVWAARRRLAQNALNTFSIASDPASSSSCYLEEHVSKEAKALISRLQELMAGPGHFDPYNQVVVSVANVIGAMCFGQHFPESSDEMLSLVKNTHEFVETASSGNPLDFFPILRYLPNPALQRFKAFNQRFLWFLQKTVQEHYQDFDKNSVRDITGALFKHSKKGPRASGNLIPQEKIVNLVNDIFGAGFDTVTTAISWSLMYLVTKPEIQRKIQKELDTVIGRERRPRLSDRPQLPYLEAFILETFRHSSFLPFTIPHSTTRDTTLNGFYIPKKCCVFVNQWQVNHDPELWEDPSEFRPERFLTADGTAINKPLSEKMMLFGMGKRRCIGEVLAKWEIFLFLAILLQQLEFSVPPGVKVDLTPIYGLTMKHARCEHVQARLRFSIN

Cytochrome P450 2C19 = Cytochrome P450 2C19 (Homo sapiens, UniProt P33261); test: Cytochrome panel assay with activity outcomes. Panel member name: p450-cyp2c19 Compounds with AC50 equal or less than 10 uM are considered active; assay type: functional; details: read-out: AC50
Cytochrome P450 2C19, sequence (P33261 whole entry): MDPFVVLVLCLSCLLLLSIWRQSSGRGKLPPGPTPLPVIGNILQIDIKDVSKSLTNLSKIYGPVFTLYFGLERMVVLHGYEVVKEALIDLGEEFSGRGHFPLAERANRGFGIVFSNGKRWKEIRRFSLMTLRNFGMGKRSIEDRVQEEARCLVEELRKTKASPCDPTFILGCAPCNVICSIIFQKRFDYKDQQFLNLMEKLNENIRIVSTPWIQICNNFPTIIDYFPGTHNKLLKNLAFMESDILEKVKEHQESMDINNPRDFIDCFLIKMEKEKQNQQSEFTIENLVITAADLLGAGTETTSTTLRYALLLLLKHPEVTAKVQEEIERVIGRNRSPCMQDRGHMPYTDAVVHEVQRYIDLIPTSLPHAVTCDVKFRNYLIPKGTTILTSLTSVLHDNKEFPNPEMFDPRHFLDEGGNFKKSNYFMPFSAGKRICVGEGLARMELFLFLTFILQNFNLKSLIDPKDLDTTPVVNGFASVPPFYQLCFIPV

Cytochrome P450 2D6 = Cytochrome P450 2D6 (Homo sapiens, UniProt P10635);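 further: CYP2D6 member of a cytochrome P450 panel assay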
Cytochrome P450 2D6, sequence (P10635 whole entry): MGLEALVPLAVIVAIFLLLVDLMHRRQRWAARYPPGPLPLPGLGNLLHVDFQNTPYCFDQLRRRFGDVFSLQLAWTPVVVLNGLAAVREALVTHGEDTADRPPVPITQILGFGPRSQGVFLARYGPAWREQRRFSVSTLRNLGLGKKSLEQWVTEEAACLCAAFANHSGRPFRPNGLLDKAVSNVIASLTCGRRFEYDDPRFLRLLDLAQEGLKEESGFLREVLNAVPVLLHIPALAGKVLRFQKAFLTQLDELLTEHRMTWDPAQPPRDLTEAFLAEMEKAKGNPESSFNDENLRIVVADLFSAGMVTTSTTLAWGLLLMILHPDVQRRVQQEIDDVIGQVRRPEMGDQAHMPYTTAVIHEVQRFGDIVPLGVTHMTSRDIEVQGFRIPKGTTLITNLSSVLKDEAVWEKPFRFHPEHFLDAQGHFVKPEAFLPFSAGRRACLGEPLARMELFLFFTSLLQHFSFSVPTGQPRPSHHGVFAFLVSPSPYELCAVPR

[3] = Luminescence Cell-Based Dose Response HTS to Identify Activators of Luciferase Translation or Activity in H4 […] Cells. [Related pubchem assays: 1829 (Project Summary), 1814 (Primary HTS)]; assay type: functional
H4 = test: Luminescence Cell-Based Dose Response HTS to Identify Activators of 5'UTR Stem-Loop Driven Prion Protein mRNA Translation in H4 Neuroglioblastoma Cells. [Related pubchem assays: 1829 (Project Summary), 1814 (Primary HTS)]; assay type: functional; details: Homo sapiens
Cytochrome P450 2C9 = Cytochrome P450 2C9 (Homo sapiens, UniProt P11712)
Cytochrome P450 2C9, sequence (P11712 whole entry): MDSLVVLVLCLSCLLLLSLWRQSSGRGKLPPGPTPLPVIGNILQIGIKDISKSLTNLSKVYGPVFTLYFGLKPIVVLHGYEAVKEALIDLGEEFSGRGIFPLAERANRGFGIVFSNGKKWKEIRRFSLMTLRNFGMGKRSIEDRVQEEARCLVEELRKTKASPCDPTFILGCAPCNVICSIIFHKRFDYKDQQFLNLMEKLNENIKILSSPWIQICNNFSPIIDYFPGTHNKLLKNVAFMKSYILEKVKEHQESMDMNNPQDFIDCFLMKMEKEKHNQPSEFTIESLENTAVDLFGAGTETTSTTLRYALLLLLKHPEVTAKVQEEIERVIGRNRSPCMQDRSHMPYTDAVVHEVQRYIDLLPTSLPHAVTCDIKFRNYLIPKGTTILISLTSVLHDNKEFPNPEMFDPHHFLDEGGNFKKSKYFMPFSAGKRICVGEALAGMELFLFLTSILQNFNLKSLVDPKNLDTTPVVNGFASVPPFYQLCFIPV

Cytochrome P450 3A4 = Cytochrome P450 3A4 (Homo sapiens, UniProt P08684);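 further: CYP3A4 tested as one member of a cytochrome P450 panel screen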
Cytochrome P450 3A4, sequence (P08684 whole entry): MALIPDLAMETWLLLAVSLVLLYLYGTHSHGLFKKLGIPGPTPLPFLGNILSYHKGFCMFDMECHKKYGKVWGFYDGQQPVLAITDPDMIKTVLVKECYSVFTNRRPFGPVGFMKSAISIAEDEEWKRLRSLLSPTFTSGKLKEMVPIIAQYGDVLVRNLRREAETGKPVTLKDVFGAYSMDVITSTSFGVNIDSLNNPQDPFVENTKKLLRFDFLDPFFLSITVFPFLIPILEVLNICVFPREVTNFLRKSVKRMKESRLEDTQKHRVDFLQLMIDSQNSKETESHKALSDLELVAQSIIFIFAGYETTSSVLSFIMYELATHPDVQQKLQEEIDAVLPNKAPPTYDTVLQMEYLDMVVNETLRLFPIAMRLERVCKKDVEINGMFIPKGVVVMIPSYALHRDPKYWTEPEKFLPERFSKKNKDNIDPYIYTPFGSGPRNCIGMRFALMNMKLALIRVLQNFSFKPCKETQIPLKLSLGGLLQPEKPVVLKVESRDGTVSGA

[4] = molecular target: T4, Replicative DNA helicase DnaB (Mycobacterium tuberculosis, UniProt P9WMR3); test: DnaB intein splicing inhibitors, dose response, biochemical, cell-free fluorescence (AID 449749); assay type: functional
T4 sequence (P9WMR3 whole entry): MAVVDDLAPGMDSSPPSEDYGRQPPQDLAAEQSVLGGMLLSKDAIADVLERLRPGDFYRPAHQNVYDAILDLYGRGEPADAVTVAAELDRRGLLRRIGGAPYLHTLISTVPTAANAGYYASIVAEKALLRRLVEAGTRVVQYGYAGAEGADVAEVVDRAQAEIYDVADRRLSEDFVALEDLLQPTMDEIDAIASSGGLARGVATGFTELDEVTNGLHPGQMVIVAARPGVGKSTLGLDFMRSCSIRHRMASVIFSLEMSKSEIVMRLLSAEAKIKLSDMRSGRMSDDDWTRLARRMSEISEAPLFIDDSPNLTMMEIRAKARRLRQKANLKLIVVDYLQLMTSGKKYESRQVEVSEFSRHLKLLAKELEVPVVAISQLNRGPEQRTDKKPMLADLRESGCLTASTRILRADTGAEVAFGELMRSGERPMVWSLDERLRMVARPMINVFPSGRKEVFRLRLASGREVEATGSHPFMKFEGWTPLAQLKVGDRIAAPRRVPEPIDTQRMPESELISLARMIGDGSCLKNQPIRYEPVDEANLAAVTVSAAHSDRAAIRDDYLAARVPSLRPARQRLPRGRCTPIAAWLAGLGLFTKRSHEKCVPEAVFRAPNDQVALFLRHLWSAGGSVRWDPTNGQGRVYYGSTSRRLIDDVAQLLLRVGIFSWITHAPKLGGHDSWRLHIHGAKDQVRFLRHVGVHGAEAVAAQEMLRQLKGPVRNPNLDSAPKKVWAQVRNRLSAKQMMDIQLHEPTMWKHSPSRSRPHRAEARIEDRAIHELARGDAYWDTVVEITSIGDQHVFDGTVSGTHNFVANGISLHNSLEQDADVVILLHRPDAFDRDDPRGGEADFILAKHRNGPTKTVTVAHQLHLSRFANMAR

Protein RecA = molecular target: T5, Protein RecA (Mycobacterium tuberculosis, UniProt P9WHJ3); test: Fluorescence Cell-Free Homogeneous Dose Retest to Identify Inhibitors of RecA-Intein Splicing Activity. [Related pubchem assays (depositor defined):AID2097, AID2223, AID489010, AID492950]; assay type: functional
T5 sequence (P9WHJ3 whole entry): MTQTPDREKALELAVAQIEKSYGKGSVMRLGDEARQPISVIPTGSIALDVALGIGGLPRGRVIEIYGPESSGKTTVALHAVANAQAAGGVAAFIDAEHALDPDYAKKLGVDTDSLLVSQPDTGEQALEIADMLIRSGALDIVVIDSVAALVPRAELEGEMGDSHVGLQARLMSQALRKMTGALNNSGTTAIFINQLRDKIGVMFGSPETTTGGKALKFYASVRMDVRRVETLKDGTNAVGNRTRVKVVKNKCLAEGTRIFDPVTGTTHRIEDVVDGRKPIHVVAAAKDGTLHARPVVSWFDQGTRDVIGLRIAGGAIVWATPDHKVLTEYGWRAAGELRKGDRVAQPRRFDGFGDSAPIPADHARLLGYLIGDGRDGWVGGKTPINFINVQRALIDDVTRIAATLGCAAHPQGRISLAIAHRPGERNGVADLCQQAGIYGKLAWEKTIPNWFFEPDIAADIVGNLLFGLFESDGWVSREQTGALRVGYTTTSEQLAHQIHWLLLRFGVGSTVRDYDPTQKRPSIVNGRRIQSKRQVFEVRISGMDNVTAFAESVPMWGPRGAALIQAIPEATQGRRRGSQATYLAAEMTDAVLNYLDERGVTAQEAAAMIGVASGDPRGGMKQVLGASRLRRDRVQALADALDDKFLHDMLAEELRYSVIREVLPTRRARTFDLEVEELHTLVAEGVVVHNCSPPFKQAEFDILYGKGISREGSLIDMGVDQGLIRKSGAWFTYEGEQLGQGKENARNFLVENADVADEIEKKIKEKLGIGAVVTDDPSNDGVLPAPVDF

Paired box protein Pax-8, sequence (Q06710 whole entry, the tested form may be a part): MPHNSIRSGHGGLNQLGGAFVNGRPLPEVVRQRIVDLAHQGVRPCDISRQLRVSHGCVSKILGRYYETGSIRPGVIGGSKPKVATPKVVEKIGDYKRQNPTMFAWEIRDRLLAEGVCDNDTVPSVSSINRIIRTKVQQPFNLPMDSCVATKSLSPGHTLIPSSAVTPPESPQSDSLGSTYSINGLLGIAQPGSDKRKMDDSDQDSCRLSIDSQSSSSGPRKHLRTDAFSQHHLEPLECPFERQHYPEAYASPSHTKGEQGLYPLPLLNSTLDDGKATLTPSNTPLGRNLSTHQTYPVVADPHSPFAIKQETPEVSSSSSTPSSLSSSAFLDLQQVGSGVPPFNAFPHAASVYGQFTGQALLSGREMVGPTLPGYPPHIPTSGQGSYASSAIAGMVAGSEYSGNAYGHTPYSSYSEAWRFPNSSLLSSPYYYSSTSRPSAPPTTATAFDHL

CCCCn1nc(C(=O)Nc2cc(C(F)(F)F)ccc2N2CCOCC2)ccc1=O
AC50 (Paired box protein Pax-8): 4.7 µM (active)

CCn1c(CNC(=O)c2ccc(Cl)cc2)nnc1SCC(=O)N1CCOCC1
EC50 [1]: > 300 µM (not active)
EC50 [2]: > 300 µM (not active)

COC(=O)[C@@]1(Cc2ccc(F)cc2)[C@H]2c3cc(C(=O)N(C)C)n(Cc4ccc(Cl)c(C(F)(F)F)c4)c3C[C@H]2CN1C(=O)c1ccccc1
AC50 (Cytochrome P450 1A2): 15.8 µM (inconclusive)
AC50 (Cytochrome P450 2C19): 5.01 µM (inconclusive)
AC50 (Cytochrome P450 2D6): 6.31 µM (inconclusive)

COc1ccc(C2=CC3=CC(=O)C(C)(O)C(=O)C3=CO2)cc1 (stereo not drawn)
EC50 [1]: 45.6 µM (active)
EC50 [2]: 25.5 µM (active)

COC(=O)[C@@]1(Cc2ccc(OC)cc2)[C@H]2c3cc(C(=O)N4CCCC4)n(CCc4ccc(O)c(OC)c4)c3C[C@H]2CN1C(=O)c1ccccc1
AC50 (Cytochrome P450 2D6): 39.8 µM (inconclusive)

[O-][n+]1onc2c3ccnnc3ccc21
EC50 [3]: 1.93 µM (active)
EC50 (H4): > 120 µM (not active)

CC1(C)CC(=O)C2=C(C1)OC(N)=C(C#N)C2c1ccc(OC(=O)N2CCOCC2)cc1 (stereo not drawn)
EC50 [1]: > 300 µM (not active)
EC50 [2]: > 300 µM (not active)

CC1(OC(=O)C2CCCC2)C(=O)C=C2C=C(C3CC3)OC=C2C1=O (stereo not drawn)
EC50 [1]: > 300 µM (not active)
EC50 [2]: > 300 µM (not active)

Clc1ccc(COc2ccccn2)cc1Cl
AC50 (Cytochrome P450 2D6): 11.2 µM (inconclusive)

Cc1cc(N2C(=O)C(O)=C(C(=O)c3cc4ccccc4o3)C2c2ccc([N+](=O)[O-])cc2)no1 (stereo not drawn)
EC50 [1]: > 300 µM (not active)
EC50 [2]: 45.4 µM (active)

COc1cc(OC)c2c(-c3cccc(-c4ccc(OC)c(F)c4)c3)cc(=O)oc2c1
AC50 (Paired box protein Pax-8): 1.08 µM (active)

COC(=O)[C@@]1(Cc2ccc(F)cc2)[C@H]2c3cc(C(=O)N(C)C)n(Cc4cc(C)n(C)n4)c3C[C@H]2CN1C(=O)c1ccccc1
AC50 (Cytochrome P450 2C19): 39.8 µM (inconclusive)
AC50 (Cytochrome P450 2D6): 39.8 µM (inconclusive)

CCc1c(C)nc(SCC(=O)NNC(=O)c2ccco2)[nH]c1=O
EC50 [1]: 7.26 µM (inconclusive)
EC50 [2]: 10.1 µM (active)

Cc1cccc(Nc2nc3c(s2)CCCC3)c1
EC50 [3]: 2.59 µM (active)
EC50 (H4): 3.41 µM (active)

O=C(NCc1ccc2c(c1)OCO2)C1CC(=O)N(C2CCCC2)C1 (stereo not drawn)
AC50 (Cytochrome P450 1A2): 17.8 µM (inconclusive)
AC50 (Cytochrome P450 2C19): 35.5 µM (inconclusive)
AC50 (Cytochrome P450 2D6): 12.6 µM (inconclusive)

CC(C)C(=O)NCCCc1ccccc1
AC50 (Cytochrome P450 2D6): 20 µM (inconclusive)
AC50 (Cytochrome P450 2C9): 5.62 µM (inconclusive)

O=C(CN1CCN(c2ccc(Cl)cc2)CC1)Nc1cccc(F)c1
AC50 (Cytochrome P450 3A4): 25.1 µM (inconclusive)
AC50 (Cytochrome P450 2D6): 1.41 µM (inconclusive)

COc1ccc2[nH]c(-c3ccccc3)c(CCNC(C)=O)c2c1
AC50 (Cytochrome P450 2D6): 25.1 µM (inconclusive)

O=C1N=NC2=C1c1c3ccccc3c(O)n1CC2
AC50 [4]: 15.6 µM (active)
EC50 (Protein RecA): 7.63 µM (active)

Cc1ccc(/C=C2\C(=O)NC(=O)N(CC3CCCO3)C2=O)s1 (stereo not drawn)
EC50 [1]: > 300 µM (not active)
EC50 [2]: > 300 µM (not active)

O=C1NC(=O)/C(=C2\C(=O)Nc3ccc(Br)cc32)S1
EC50 [1]: 17 µM (active)
EC50 [2]: 11 µM (active)

COc1ccc(NC(=O)CSc2nnc(CNC(=O)c3ccco3)n2-c2ccccc2OC)cc1
AC50 (Cytochrome P450 3A4): 39.8 µM (inconclusive)
AC50 (Cytochrome P450 2C19): 3.98 µM (inconclusive)
AC50 (Cytochrome P450 2D6): 35.5 µM (inconclusive)
AC50 (Cytochrome P450 2C9): 5.01 µM (inconclusive)

C1=Cc2ccccc2C1.C=C(C)c1ccccc1.[N-]=[N+]=Nc1ccccc1
AC50 (Cytochrome P450 2C19): 3.16 µM (inconclusive)
AC50 (Cytochrome P450 2D6): 3.98 µM (inconclusive)

Cc1ccc(-c2ccc(CCC(=O)O)n2-c2ccc(C(=O)O)cc2)cc1
EC50 [1]: > 300 µM (not active)
EC50 [2]: > 300 µM (not active)

CCOc1ccc(C(CN2CCOCC2)C(C)=O)cc1OC (stereo not drawn)
AC50 (Paired box protein Pax-8): 1.68 µM (active)

COc1ccc(S(=O)(=O)Nc2ccc3c(c2)CC(=O)N([C@H](C)CO)C[C@H](C)[C@@H](CN(C)Cc2ccc(Cl)c(Cl)c2)O3)cc1
AC50 (Paired box protein Pax-8): 16.2 µM (active)

Cc1ccc(S(=O)(=O)Nc2ccc3c(c2)C(=O)N([C@@H](C)CO)C[C@@H](C)[C@@H](CN(C)Cc2ccc(C(F)(F)F)cc2)OCCCC[C@@H](C)O3)cc1
AC50 (Paired box protein Pax-8): 13.3 µM (active)

Cc1cc(/C=N/n2cnnc2)c(C)n1-c1ccc(C(=O)O)cc1
EC50 [1]: > 300 µM (not active)
EC50 [2]: > 300 µM (not active)

CC(=O)O[C@@H]1CN2CCC1CC2 [(S)-ACECLIDINE]
AC50 (Cytochrome P450 2D6): 15.8 µM (inconclusive)
